For 1 compound, remaining binding results are on record in paper PMC7486443, “Generation of Phenothiazine with Potent Anti-TLK1 Activity for Prostate Cancer Therapy” (iScience, 2020).

What all share (assay): biochemical
Holding throughout (design): DiscoverX KINOMEscan scanMAX competition binding panel, single concentration, percent of control; remaining binding: dose or concentration left out as unconfirmed
Holding throughout (conditions): KINOMEscan binding, percent of control; read-out: Table S4_SCANMAX REPORT - related to Fig. 1 / Percent Control

The target of test [1] is EGFR(L858R) (Homo sapiens, UniProt P00533, L858R).
The target of test [2] is T1, PRP4 (Homo sapiens, UniProt Q13523).
T1 construct: gene PRPF4B

For test [3], the target named is T2, MEK4 (Homo sapiens, UniProt P45985).
T2 construct: gene MAP2K4

The target in test [4] is T3, JNK3 (Homo sapiens, UniProt P53779).
T3 construct: gene MAPK10

In test [5] the target is MYLK4 (Homo sapiens, UniProt Q86YV6).
Test [6] concerns the target BRSK1 (Homo sapiens, UniProt Q8TDC3).
Test [7] deals with T4, CTK (Homo sapiens, UniProt P42679).
T4 construct: gene MATK

The target of test [8] is TSSK3 (Homo sapiens, UniProt Q96PN8).
For test [9], the target named is EPHA1 (Homo sapiens, UniProt P21709).
In test [10] the target is PIM1 (Homo sapiens, UniProt P11309).
Test [11] addresses TSSK1B (Homo sapiens, UniProt Q9BXA7).
Test [12] has as its target CAMKK2 (Homo sapiens, UniProt Q96RR4).
Test [13] addresses T5, PCTK3 (Homo sapiens, UniProt Q07002).
T5 construct: gene CDK18

Test [14] addresses FLT3(R834Q) (Homo sapiens, UniProt P36888, R834Q).
In test [15] the target is RIPK1 (Homo sapiens, UniProt Q13546).
For test [16], the target named is PIK3CA(E542K) (Homo sapiens, UniProt P42336, E542K).
Test [17] concerns the target CAMK4 (Homo sapiens, UniProt Q16566).
Test [18] deals with ULK2 (Homo sapiens, UniProt Q8IYT8).
The target of test [19] is TTK (Homo sapiens, UniProt P33981).

T3 sequence (P53779 whole entry): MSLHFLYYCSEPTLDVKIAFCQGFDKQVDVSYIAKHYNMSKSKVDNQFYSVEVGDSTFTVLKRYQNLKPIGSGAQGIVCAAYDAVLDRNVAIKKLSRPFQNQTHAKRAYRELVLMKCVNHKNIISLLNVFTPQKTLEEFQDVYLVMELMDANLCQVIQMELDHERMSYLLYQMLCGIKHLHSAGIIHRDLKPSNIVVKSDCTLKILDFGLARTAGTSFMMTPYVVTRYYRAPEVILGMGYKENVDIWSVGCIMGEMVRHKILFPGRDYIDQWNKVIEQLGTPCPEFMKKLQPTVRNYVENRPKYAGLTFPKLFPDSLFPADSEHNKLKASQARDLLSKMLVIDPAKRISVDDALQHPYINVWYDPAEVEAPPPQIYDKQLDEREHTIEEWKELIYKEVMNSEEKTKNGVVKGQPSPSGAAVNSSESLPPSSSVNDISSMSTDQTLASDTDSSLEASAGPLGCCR
T5 sequence (Q07002 whole entry): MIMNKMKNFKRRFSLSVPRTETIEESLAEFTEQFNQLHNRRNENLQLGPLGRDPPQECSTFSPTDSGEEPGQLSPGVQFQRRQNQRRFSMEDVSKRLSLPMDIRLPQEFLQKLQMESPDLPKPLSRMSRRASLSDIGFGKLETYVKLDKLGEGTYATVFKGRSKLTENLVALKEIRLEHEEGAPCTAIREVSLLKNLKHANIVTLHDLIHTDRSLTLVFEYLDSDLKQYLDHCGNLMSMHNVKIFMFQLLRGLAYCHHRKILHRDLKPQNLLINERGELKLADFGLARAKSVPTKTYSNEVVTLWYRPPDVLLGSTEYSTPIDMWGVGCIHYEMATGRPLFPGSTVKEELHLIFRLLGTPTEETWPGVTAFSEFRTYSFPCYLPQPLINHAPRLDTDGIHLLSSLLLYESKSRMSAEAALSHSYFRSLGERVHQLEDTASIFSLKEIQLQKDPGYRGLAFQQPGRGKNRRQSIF
T2 sequence (P45985 whole entry): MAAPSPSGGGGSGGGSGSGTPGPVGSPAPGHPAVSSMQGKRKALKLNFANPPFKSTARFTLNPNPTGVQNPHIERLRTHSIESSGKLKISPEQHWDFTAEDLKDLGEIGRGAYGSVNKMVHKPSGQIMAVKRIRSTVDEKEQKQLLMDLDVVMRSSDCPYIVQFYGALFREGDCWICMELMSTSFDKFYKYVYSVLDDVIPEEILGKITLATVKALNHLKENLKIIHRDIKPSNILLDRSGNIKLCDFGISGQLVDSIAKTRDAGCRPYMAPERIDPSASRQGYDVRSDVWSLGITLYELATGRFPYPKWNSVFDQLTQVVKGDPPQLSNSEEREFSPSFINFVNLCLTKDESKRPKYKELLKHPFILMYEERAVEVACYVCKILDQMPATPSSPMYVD
Sequence of EPHA1 (P21709 whole entry): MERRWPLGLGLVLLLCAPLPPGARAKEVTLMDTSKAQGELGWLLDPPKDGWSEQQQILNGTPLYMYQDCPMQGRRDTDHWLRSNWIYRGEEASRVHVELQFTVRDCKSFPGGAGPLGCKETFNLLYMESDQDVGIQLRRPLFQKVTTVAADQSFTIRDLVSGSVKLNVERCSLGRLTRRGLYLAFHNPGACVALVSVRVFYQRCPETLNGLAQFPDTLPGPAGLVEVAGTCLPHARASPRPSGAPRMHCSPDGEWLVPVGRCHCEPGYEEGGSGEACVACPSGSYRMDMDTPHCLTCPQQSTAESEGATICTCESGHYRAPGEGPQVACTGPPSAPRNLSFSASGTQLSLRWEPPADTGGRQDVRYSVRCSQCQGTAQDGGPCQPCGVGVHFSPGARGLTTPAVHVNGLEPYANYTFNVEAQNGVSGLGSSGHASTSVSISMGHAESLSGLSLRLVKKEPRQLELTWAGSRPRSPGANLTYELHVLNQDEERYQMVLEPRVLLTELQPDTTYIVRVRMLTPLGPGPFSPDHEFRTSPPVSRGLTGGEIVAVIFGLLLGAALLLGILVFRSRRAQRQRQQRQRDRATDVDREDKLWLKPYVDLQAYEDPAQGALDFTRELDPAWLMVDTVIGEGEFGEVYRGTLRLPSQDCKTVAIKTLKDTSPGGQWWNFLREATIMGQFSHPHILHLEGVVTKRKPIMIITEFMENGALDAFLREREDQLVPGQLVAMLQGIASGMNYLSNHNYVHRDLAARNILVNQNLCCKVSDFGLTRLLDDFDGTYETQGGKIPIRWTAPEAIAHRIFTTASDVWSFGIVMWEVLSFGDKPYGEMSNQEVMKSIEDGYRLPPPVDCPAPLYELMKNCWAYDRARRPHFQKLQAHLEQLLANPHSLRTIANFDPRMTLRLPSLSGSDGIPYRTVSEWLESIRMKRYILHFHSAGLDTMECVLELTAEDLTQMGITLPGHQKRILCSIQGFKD
T1 sequence (Q13523 whole entry): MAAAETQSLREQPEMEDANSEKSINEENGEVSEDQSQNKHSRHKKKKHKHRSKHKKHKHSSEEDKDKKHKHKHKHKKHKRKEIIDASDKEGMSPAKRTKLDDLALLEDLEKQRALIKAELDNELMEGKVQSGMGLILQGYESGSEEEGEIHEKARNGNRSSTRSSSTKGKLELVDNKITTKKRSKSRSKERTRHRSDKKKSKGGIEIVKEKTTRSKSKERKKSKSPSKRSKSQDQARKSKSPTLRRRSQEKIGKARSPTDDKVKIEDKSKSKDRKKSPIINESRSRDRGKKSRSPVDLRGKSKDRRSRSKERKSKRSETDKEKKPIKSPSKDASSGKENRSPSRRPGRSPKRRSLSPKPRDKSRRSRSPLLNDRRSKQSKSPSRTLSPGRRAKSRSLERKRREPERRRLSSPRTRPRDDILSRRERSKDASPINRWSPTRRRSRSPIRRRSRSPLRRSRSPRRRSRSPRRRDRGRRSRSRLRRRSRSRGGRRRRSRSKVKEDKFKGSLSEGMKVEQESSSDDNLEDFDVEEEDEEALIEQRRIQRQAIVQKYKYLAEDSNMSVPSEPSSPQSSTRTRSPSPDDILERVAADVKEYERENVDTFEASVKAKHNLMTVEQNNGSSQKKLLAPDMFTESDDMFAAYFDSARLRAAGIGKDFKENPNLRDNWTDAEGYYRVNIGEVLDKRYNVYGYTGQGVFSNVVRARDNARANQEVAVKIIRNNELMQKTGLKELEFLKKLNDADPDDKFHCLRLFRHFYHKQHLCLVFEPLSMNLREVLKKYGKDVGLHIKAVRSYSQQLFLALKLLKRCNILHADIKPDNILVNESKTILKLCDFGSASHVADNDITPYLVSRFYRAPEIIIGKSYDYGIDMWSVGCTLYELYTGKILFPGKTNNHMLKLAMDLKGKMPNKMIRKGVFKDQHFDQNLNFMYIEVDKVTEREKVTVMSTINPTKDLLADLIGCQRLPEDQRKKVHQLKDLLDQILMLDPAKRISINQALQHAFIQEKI
Sequence of EGFR(L858R) (P00533 whole entry L858R): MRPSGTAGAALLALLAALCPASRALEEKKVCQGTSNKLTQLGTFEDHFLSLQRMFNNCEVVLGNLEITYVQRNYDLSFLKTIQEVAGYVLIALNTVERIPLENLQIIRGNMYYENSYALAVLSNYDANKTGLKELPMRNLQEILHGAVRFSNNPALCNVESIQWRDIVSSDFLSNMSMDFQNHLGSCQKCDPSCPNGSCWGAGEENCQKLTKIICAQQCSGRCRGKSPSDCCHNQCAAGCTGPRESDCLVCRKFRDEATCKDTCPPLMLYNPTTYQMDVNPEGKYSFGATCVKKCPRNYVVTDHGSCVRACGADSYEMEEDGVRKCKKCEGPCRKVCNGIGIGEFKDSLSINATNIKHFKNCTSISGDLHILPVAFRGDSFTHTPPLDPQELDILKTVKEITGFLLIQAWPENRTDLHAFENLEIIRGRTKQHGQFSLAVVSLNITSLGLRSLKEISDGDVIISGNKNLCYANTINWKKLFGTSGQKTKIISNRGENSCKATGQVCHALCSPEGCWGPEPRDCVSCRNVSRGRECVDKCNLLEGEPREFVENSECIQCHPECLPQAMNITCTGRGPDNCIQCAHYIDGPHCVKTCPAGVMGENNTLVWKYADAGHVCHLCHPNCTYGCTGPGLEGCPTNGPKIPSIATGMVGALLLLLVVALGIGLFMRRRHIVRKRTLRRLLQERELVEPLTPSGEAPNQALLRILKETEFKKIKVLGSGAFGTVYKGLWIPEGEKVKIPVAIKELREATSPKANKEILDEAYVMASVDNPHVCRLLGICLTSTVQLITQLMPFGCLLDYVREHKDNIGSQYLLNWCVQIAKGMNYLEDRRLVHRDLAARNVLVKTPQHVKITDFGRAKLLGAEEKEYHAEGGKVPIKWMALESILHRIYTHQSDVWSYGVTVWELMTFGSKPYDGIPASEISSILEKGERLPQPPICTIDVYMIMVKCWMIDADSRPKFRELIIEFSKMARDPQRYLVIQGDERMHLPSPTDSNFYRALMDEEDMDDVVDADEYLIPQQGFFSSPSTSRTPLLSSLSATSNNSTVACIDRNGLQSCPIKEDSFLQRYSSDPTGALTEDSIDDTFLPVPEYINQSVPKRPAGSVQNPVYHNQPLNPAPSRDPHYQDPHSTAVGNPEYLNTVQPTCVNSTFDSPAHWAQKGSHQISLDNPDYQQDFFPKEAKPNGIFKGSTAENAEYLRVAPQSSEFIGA
Sequence of TSSK3 (Q96PN8 whole entry): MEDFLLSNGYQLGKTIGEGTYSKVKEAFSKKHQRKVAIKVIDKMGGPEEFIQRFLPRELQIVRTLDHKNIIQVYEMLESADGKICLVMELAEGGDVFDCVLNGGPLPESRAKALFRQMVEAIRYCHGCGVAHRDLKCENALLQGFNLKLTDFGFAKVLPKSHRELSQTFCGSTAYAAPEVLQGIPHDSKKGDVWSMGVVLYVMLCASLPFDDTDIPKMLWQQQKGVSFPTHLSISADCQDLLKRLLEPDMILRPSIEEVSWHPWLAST

On to `c1ccc2c(c1)Sc1ccccc1N2CCN1CCOCC1` [J54], for which the remaining binding stood at 92% in test [1]; 74% in test [2]; 100% in [3]; 93% in test [4]; 99% in test [5]; 100% in [6]. The remaining binding in [7] was 95%; in test [8], 87%; in [9], 100%; in [10], 81%; in test [11] it was 59%; in [12], 100%. Besides, the remaining binding in test [13] came to 100%; in test [14], 100%; in test [15], 84%; in [16], 100%; in test [17] it was 94%; in [18], 100%. Further, the remaining binding in test [19] turned out to be 17%.
